Source: publication PMC10534827 (Pharmaceuticals, 2023)
Where two headings read alike, the source gives them in different places.

Tests used:
SH-SY5Y cells = assay: MTT cytotoxicity, SH-SY5Y; type: cell-based, human; details: read-out: SH-SY5Y IC50
Neuro-2a cells = assay: MTT cytotoxicity, Neuro-2a; type: cell-based, murine; details: read-out: Neuro-2a IC50
[1] = molecular target: T1, Acetylcholinesterase from Electrophorus electricus (Electrophorus electricus, UniProt O42275); assay: biochemical; type: biochemical; details: for inhibition at 1000 µM: 1 mM solution of the tested compound, read-out: Activity [%] (inhibition percentage of AChE); for IC50: mean ± SD of three experiments, read-out: AChE IC50
T1 construct: purchased Sigma-Aldrich, Hamburg, Germany
Experimental: (§1) AChE and BChE inhibitory activity was measured using the microplate assay described by Ellman et al. [68] with the modifications added by López et al. [36]. The compounds were tested at concentrations between 10^−3 and 10^−8 M. First, all compounds were dissolved in 1% DMSO in a concentration of 1 mg/mL.
(§2) Incubation of the plates was performed at room temperature for 30 min. Then, 100 μL of substrate solution were added to start the enzymatic reaction. […] Enzyme activity was calculated as an inhibition percentage compared to an assay including buffer instead of an inhibitor. […] All data were analyzed with the software package Prism 3 (Graph Pad Inc., San Diego, CA, USA).

[2] = molecular target: T2, butyrylcholinesterase from equine serum (Equus caballus, UniProt P81908); assay: biochemical; details: for inhibition at 1000 µM: read-out: Activity [%] (inhibition percentage of BChE); for SI BChE: IC50(AChE)/IC50(BChE)
T2 construct: butyrylcholinesterase from equine serum; purchased Sigma-Aldrich, Hamburg, Germany; host or cells: equine serum
Experimental: as §1, §2

CCL-1 cells = assay: MTT cytotoxicity, CCL-1 normal fibroblasts; type: cell-based, murine; details: read-out: CCL-1 IC50
[3] = ABTS radical scavenging assay; details: 734 nm after 5 min
Experimental: These compounds were also tested for their antioxidant activities by using the ABTS [2,2′-azinobis (3-ethylbenzothiazoline-6-sulfonic acid)] cation radical decolorization method (Table 4). The BHT [41] was used for comparison. The ABTS cation radical is produced by oxidation of the ABTS molecule with strong oxidizing agents, such as potassium persulfate in water.
For ABTS assay, the procedure followed the method of Arnao et al. [71] with some modifications. […] The working solution was then prepared by mixing the two stock solutions in equal quantities and allowing them to react for 14 h at room temperature in the dark. […] A fresh ABTS solution was prepared for each assay. […] The ABTS scavenging capacity of the compound was calculated as follows:ABTS radical scavenging activity (%) = ((Abscontr. − Abssample)/Abscontr.) ×100, where Abscontr. is the absorbance of DPPH radical with 300 μL MeOH, Abssample is the absorbance of DPPH radical solution mixed with the sample. […] BHT was used as positive control.

[4] = Lipid peroxidation in linoleic acid system, FTC method; details: 10 mM compound, 500 nm
Experimental: The antioxidant activity of studied compounds against lipid peroxidation was measured through ammonium thiocyanate assay as described by Takao et al. [66] with some modifications. […] A 10 μL aliquot of the reaction solution was then added to 200 μL of 70% (v/v) ethanol and 10 μL of 30% (w/v) ammonium thiocyanate. […] Aliquots were assayed every 24 h until the day after the absorbance of the control solution (without compound) reached maximum value. BHT (10 mM) was used as positive control.

[5] = Ferric reducing antioxidant power (FRAP); details: 150 μL of 5 mM compound, 30 min, 593 nm, Trolox equivalent
[6] = Homo sapiens, SH-SY5Y, MTT, 72 h exposure
[7] = Mus musculus, N2a, MTT, 72 h exposure
[8] = 1 mM solution of the tested compound
[9] = mean ± SD of three experiments, read-out: BChE IC50
[10] = Mus musculus, Fibroblast, MTT, 72 h exposure

T1 sequence (O42275 24-633): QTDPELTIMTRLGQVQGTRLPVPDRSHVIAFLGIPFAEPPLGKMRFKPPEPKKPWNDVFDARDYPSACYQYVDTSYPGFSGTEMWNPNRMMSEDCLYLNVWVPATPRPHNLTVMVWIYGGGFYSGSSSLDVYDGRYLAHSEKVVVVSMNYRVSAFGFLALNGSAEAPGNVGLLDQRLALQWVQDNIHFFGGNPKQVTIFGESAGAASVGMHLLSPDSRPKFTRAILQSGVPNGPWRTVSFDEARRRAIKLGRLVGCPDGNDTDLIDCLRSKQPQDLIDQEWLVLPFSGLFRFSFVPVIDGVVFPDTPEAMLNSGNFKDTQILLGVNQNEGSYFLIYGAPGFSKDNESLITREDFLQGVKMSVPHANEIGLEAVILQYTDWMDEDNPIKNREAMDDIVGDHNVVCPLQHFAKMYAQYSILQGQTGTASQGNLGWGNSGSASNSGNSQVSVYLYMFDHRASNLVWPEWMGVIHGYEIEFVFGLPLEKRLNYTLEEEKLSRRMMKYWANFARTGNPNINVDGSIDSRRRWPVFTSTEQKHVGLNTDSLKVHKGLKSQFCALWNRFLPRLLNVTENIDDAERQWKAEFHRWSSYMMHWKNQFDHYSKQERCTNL
T2 sequence (P81908 whole entry): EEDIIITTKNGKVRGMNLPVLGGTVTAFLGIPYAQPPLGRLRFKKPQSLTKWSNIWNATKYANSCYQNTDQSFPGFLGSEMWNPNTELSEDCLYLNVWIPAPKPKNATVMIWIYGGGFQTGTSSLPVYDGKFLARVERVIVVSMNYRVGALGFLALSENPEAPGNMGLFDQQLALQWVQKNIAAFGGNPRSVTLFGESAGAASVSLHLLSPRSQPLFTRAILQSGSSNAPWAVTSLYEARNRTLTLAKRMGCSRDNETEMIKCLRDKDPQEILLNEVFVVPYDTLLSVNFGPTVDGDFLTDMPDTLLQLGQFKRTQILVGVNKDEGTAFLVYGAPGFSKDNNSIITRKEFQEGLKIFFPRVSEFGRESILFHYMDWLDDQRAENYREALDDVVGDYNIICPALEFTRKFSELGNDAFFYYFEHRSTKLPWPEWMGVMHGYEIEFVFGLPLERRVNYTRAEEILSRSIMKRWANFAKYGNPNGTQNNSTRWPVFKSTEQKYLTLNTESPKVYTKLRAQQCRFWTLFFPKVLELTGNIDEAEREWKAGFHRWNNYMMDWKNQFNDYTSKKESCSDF

Compound | IC50 (SH-SY5Y cells; [6]) [µM] | IC50 (Neuro-2a cells; [7]) [µM] | inhibition at 1000 µM [1] [%] | IC50 [1] [mM] | inhibition at 1000 µM [2, 8] [%] | IC50 [2, 9] [mM] | IC50 (CCL-1 cells; [10]) [µM] | other results
O=C(N/N=C/c1ccc(O)cc1)C1CCN(Cc2ccccc2)C1 (stereo not drawn) [3e, 1-benzyl-N’-[(E)-(4-hydroxyphenyl)methylidene]pyrrolidine-3-carbohydrazide] | 170 ± 10.6 | > 300 | 3.84 | > 1 | 12.4 | > 1 | > 300 | AChE inhibitory activity in words [1]: practically inactive
O=C(N/N=C/c1ccc(O)cc1O)C1CCN(Cc2ccccc2)C1 (stereo not drawn) [3f, 1-benzyl-N’-[(E)-(2,4-dihydroxyphenyl)methylidene]pyrrolidine-3-carbohydrazide] | 35.8 ± 5.5 | 12.5 ± 2.4 | 64.1 | 0.55 ± 0.0371 | 57.2 | 0.709 ± 0.0413 | 150 ± 11.2 | SI AChE ([1]; IC50(BChE)/IC50(AChE)): 1.28
O=C(N/N=C/c1ccc(O)c(O)c1)C1CCN(Cc2ccccc2)C1 (stereo not drawn) [3g, 1-benzyl-N’-[(E)-(3,4-dihydroxyphenyl)methylidene]pyrrolidine-3-carbohydrazide] | > 300 | 110 ± 9.1 | 2.74 | > 1 | 28.2 | > 1 | > 300 | AChE inhibitory activity in words [1]: practically inactive
O=C(N/N=C/c1c(O)cc(O)cc1O)C1CCN(Cc2ccccc2)C1 (stereo not drawn) [3h, 1-benzyl-N’-[(E)-(2,4,6-trihydroxyphenyl)methylidene]pyrrolidine-3-carbohydrazide] | > 300 | > 300 | 73.3 | 0.351 ± 0.0179 | 76.5 | 0.179 ± 0.0115 | > 300 | SI BChE [2]: 1.96
COc1ccc2[nH]cc(/C=N/NC(=O)CNC(=O)OC(C)(C)C)c2c1 [3j] | 150 ± 12.3 | > 300 |  | > 1 | 17.4 | > 1 | > 300 | 
COc1ccc2c(c1)c(/C=N/NC(=O)CNC(=O)OC(C)(C)C)cn2C [3k] | 131 ± 11.8 | > 300 | 3.26 | > 1 | 30.3 | > 1 | > 300 | 
Cn1cc(/C=N/NC(=O)CNC(=O)OC(C)(C)C)c2ccccc21 [3l, tert-butyl(2-{(2E)-2-[(1-methyl-1H-indol-3-yl)methylidene]hydrazinyl}-2-oxoethyl)carbamate] | 107 ± 8.9 | > 300 |  | > 1 | 39.1 | > 1 | > 300 | 
COc1ccc(/C=N/NC(=O)c2c[nH]c3ccccc23)cc1OC [3o, N’-[(E)-(3,4-dimethoxyphenyl)methylidene]-1H-indole-3-carbohydrazide] | 70 ± 7.2 | 126 ± 10.7 |  | > 1 |  | > 1 | > 300 | 
COc1ccc(/C=N/NC(=O)Cc2c[nH]c3ccccc23)cc1OC [3p, N’-[(E)-(3,4-dimethoxyphenyl)methylidene]-2-(1H-indol-3-yl)acetohydrazide] | 87.4 ± 7.7 | 116 ± 12.8 |  | > 1 | 24 | > 1 | > 300 | 
COc1cc(/C=N/NC(=O)c2ccc(O)cc2O)ccc1O [3r, 2,4-dihydroxy-N’-[(E)-(4-hydroxy-3-methoxyphenyl)methylidene]benzohydrazide] | 156 ± 11.1 | > 300 |  | > 1 | 16.9 | > 1 | > 300 | ABTS Activity [3]: 91.41 ± 0.47%; IC50 [3]: 2.5 ± 0.23 mM; Absorbance Day 1 [4]: 0.80 ± 0.04; Absorbance Day 2 [4]: 0.81 ± 0.01; Absorbance Day 3 [4]: 0.82 ± 0.02; Absorbance Day 4 [4]: 0.87 ± 0.09; Absorbance Day 5 [4]: 0.86 ± 0.09; FRAP [5]: 14.30 ± 0.56 μMTE
COc1ccc(S(=O)(=O)N/N=C/c2cn(C)c3ccc(OC)cc23)cc1 [5b, 4-methoxy-N’-[(E)-(5-methoxy-1-methyl-1H-indol-3-yl)methylidene]benzenesulfonohydrazide] | 70.4 ± 4.9 | 30.5 ± 3.2 |  | > 1 |  | > 1 | 38.1 ± 3.5 | 
COc1ccc(S(=O)(=O)N/N=C/c2c[nH]c3ccc(OC)cc23)cc1 [5c, 4-methoxy-N’-[(E)-(5-methoxy-1H-indol-3-yl)methylidene]benzenesulfonohydrazide] | 48.3 ± 5.2 | 7.5 ± 2.4 |  | > 1 | 18.2 | > 1 | 25.7 ± 2.9 | 
O=S(=O)(N/N=C/c1cn(Cc2ccccc2)c2ccccc12)c1ccccc1 [5d, N’-[(E)-(1-benzyl-1H-indol-3-yl)methylidene]benzenesulfonohydrazide] | 99.5 ± 7.8 | 117 ± 11.5 | 41.7 | > 1 |  | > 1 | 140 ± 8.4 | 
COc1ccc(S(=O)(=O)N/N=C/c2cn(C)c3ccccc23)cc1 [5e, 4-methoxy-N’-[(E)-(1-methyl-1H-indol-3-yl)methylidene]benzenesulfonohydrazide] | 83.3 ± 4.9 | 19.9 ± 1.7 |  | > 1 |  | > 1 | 180 ± 9.6 | 
Cc1ccc(S(=O)(=O)N/N=C/c2c[nH]c3ccc(OCc4ccccc4)cc23)cc1 [5j, N’-{(E)-[5-(benzyloxy)-1H-indol-3-yl]methylidene}-4-methylbenzenesulfonohydrazide] | 33.1 ± 0.1 | 65.4 ± 0.1 | 13.2 | > 1 | 56.9 | 0.865 ± 0.159 | 41.2 ± 4.2 | ABTS Activity [3]: ≥100%; IC50 [3]: 2.18 ± 0.16 mM; Absorbance Day 1 [4]: 0.83 ± 0.01; Absorbance Day 2 [4]: 0.83 ± 0.08; Absorbance Day 3 [4]: 0.84 ± 0.02; Absorbance Day 4 [4]: 0.83 ± 0.05; Absorbance Day 5 [4]: 0.82 ± 0.02; FRAP [5]: 18.59 ± 2.28 μMTE; SI BChE [2]: 1.15
O=S(=O)(N/N=C/c1ccc(Cl)cc1)c1ccccc1 [5l, N’-[(E)-(4-chlorophenyl)methylidene]benzenesulfonohydrazide] | 99.5 ± 7.8 | 117 ± 11.5 |  | > 1 |  | > 1 | 131 ± 11.4 | 
COc1cc2c(cc1OC)C(=O)C(CC1CCN(Cc3ccccc3)CC1)C2 (stereo not drawn) [Donepezil, 1-Benzyl-4-[(5,6-dimethoxy-1-indanon-2-yl)methyl]piperidine, reference compound] |  |  |  |  |  |  |  | inhibition at 1000 µM [2]: 69.1%
COc1ccc2c3c1O[C@H]1C[C@@H](O)C=C[C@@]31CCN(C)C2 [Galanthamine, reference compound] |  |  |  |  |  |  |  | IC50 (SH-SY5Y cells; Homo sapiens, SH-SY5Y, 72 h): > 300 µM; IC50 (Neuro-2a cells; Mus musculus, N2a, 72 h): > 300 µM; inhibition at 1000 µM [2]: 85.8%; IC50 (CCL-1 cells; Mus musculus, Fibroblast, 72 h): > 300 µM
COc1ccc2[nH]cc(CCNC(C)=O)c2c1 [Melatonin, reference compound] |  |  | 1.24 | > 1 |  |  |  | Absorbance Day 1 [4]: 0.75 ± 0.07; Absorbance Day 2 [4]: 0.80 ± 0.09; Absorbance Day 3 [4]: 0.89 ± 0.05; Absorbance Day 4 [4]: 0.89 ± 0.02; Absorbance Day 5 [4]: 0.94 ± 0.01; IC50 [2]: > 1 mM; inhibition at 1000 µM [2]: 4.21 ± 0.88%
N’-[(E)-(5-methoxy-1-methyl-1H-indol-3-yl)methylidene]benzenesulfonohydrazide [5f] |  |  |  | > 1 |  | > 1 |  | IC50 (SH-SY5Y cells; MTT, 72 h exposure): 132 ± 10.3 µM; IC50 (Neuro-2a cells; MTT, 72 h exposure): 135 ± 10.9 µM; IC50 (CCL-1 cells; MTT, 72 h exposure): 167 ± 11.8 µM
